According to patent publication US11911719B2, “Devices and methods for the integrated filtration, drying, and mechanical processing of active pharmaceutical ingredients” (Massachusetts Institute of Technology, priority 2019, dated 2024):
Where a name gives a salt, the structure may show the parent alone.

What was measured:
[1] = Particle size by laser diffraction (Mastersizer 2000, Scirocco 2000 dry dispersion); format: physicochemical
Method: (§1) Particle size analysis by laser diffraction was conducted in a Malvern Mastersizer 2000 using a Scirocco 2000 dry dispersion unit.
Characterization and understanding of the particle and bulk properties of the API, the excipients, and blends were important in the development and manufacturing of pharmaceutical formulations and finished products. Size, shape, bulk density and flow properties of CIPRO, excipients (specifically fillers), and blends were characterized to assist in formulation development. The particle size of CIPRO and excipients were measured in the Scirocco 2000, dry powder dispersion unit of Mastersizer 2000 particle size analyzer (Malvern Instruments Ltd.). CIPRO or excipient was placed in the enclosed vibratory tray of Scirocco 2000. The Scirocco 2000 uses compressed air to transport and suspend the particles of the sample while they pass through the air cell. The vibratory tray of Scirocco 2000 was vibrated to feed the powder at the 50% feed rate setting. The powder was dispersed through the air cell at an air pressure of 2 bar. The Mastersizer 2000 reported volume-weighted particle sizes. The median size of fumed silica CAB-O-SIL® M-5P is about 14 nm.

[2] = Powder compressibility (FT4 Powder Rheometer); format: physicochemical
Method: (§2) The bulk density was measured using the conditioned bulk density test, performed before any other test in the FT4. Powder flow property was measured using the shear cell test. The compressibility of the powders under investigation was also measured. Bulk density is an important parameter for determining the amount of powder that can fit in space such as blender, hopper of a tablet press or a tablet die. The shear test yields various powder flow measurements including a flow coefficient. The flow function coefficient (FFC) is used as an indicator of the flowability of a powder and is defined as the ratio of the major principle stress to the unconfined yield strength. The FFC was obtained using a normal stress of 3 kPa. FFC values can be separated into different regimes: FFC<1, not flowing; 1<FFC<2, very cohesive; 2<FFC<4, cohesive; 4<FFC<10, easy flowing, and FFC>10, free-flowing. Powder compressibility was also measured. Compressibility is not a direct measurement of flowability; however a free-flowing powder usually has a low compressibility value. A compressibility value greater than 30% indicates poor powder flow.

[3] = Shear cell test, flow function coefficient (FT4 Powder Rheometer); format: physicochemical
Method: as §2

[4] = Karl Fischer analysis of lattice water; format: physicochemical; conditions: KF analysis of oven dried samples
Method: as §1
Furthermore, no significant loss of crystallinity can be observed from the baseline. The lattice water content can be quantified from KF analysis of the off-line oven dried samples collected at different times during the process. […] As expected, the cake contains approximately 19 wt % water at the start of the drying process, coming from the residual wash solvent that contains 20 vol % water (24 wt %), but diluted by the solid API. […] This value is in accordance with the observations from XRPD analysis, with the monohydrate salt of ciprofloxacin HCl having a 4.7 wt % stoichiometric water content. As the drying step progresses, the total water concentration in the cake decreases while the lattice water is maintained constant. With the USP specifications giving a target water content between 4.7 and 6.7 wt %, the obtained drug substance started meeting the specifications after 50 min of drying. This time coincides with the point at which the cake dry matter content was near 100%.

[5] = after 140 min of drying, 50° C., 0.5 bar
[6] = processed CIPRO particles, Table 3, Hydrochloride Monohydrate
[7] = Table 2 materials, volume-weighted, dry dispersion 2 bar
[8] = processed CIPRO particles, Table 3

Row | Compound | Particle size d10 [1, 6] [μm] | Particle size d50 [1, 6] [μm] | Particle size d90 [1, 6] [μm] | Compressibility [2, 6] [%] | further results
1 | Cl.O.O=C(O)c1cn(C2CC2)c2cc(N3CCNCC3)c(F)cc2c1=O [CIPRO (US & Morter-Pastle), Ciprofloxacin Hydrochloride Monohydrate] | 3.01 | 8.67 | 24.02 | 43.6 | 
2 | Cl.O.O=C(O)c1cn(C2CC2)c2cc(N3CCNCC3)c(F)cc2c1=O [CIPRO (w/o US, Krups Grinder), Ciprofloxacin Hydrochloride Monohydrate] | 1.23 | 3.88 | 33.26 | 52.6 | Compressibility ([2]; processed CIPRO particles, Table 3, listed as CIPRO (w/o use of a Krups Grinder), Hydrochloride Monohydrate): 52.6%
3 | Magnesium stearate |  |  |  |  | Particle size d10 [1, 7]: 2.76 μm; Particle size d50 [1, 7]: 6.86 μm; Particle size d90 [1, 7]: 15.10 μm; Compressibility ([2]; Table 2 materials): 38.97%; FFC (Flow function coefficient) ([3]; Table 2 materials, normal stress of 3 kPa): 5.18; Flowability by Schulze classification ([3]; based on FFC): flows easily
4 | Cl.O.O=C(O)c1cn(C2CC2)c2cc(N3CCNCC3)c(F)cc2c1=O [CIPRO (US & Krups Grinder), Ciprofloxacin Hydrochloride Monohydrate] | 1.93 | 7.09 | 65.36 | 38.8 | 
5 | O=C(O)c1cn(C2CC2)c2cc(N3CCNCC3)c(F)cc2c1=O [Ciprofloxacin HCl (CIPRO), Ciprofloxacin Hydrochloride Monohydrate] |  |  |  |  | Lattice water content of the crystalline phase [4]: 6.2 wt %; Crystal structure after drying (XRPD) [5]: retained the original crystal structure
6 | O=C(O)c1cn(C2CC2)c2cc(N3CCNCC3)c(F)cc2c1=O [CIPRO (Commercial, un-processed), Ciprofloxacin Hydrochloride Monohydrate] |  |  |  |  | Particle size d10 [1, 8]: 3.75 μm; Particle size d50 [1, 8]: 12.49 μm; Particle size d90 [1, 8]: 439.56 μm; Compressibility [2, 8]: 38.9%
7 | Cl.O.O=C(O)c1cn(C2CC2)c2cc(N3CCNCC3)c(F)cc2c1=O [CIPRO (w/o US, Grinder designed at MIT), Ciprofloxacin Hydrochloride Monohydrate] | 2.82 | 14.45 | 169.73 |  | 
